Assays:
[1] = system: cultured immature corn embryos transformed with SEQ ID NO: 6; assay: Selection of beamed corn embryos on glyphosate-containing medium; format: cell-based, Zea mays; conditions: 540 mg/l glyphosate, DN62540RR medium, aerosol beam transformation with SEQ ID NO: 6
Experimental: The Cla I and Eco RV fragment (SEQ ID NO: 6) of HCEM was introduced into cultured immature corn embryos using an aerosol beam injector according to U.S. patent application Ser. No. 09/450,226. The Cia I-Eco RV fragment comprised the glyphosate-resistant EPSPS coding sequence.
Selection was carried out as follows: the beamed embryos were allowed to remain on DN62A0S20G medium for 5 days.
The beamed embryos were then transferred to DN62A100RR—a medium containing 100 mg/l glyphosate. After two 14-day passages on DN62A100RR, actively growing tissue is transferred to DN62A300RR medium which contains 300 mg/l (Table 3). After two 14-day passages on this medium, tissue was finally transferred to DN62540RR medium which contains 540 mg/i glyphosate (Table 3). […] Regeneration is carried out as described in U.S. patent application Ser. No. 09/450,226.

[2] = system: co-cultivated corn embryos; assay: Selection of Agrobacterium co-cultivated corn embryos on glyphosate-containing medium; format: cell-based, Zea mays; conditions: 540 mg/l glyphosate, DN62540RR medium, Agrobacterium-mediated DNA delivery
Experimental: Transformation can also be accomplished using Agrobacterium-mediated DNA delivery. In this case, the transformation and regeneration are performed according to the methods as described in U.S. patent application Ser. No. 09/203,679, which is herein incorporated by reference. Briefly, after culturing on DN62A0S20GLC (Table 2) for five days, co-cultivated embryos are transferred to DN62ALC180RR medium which contains 180 mg/l glyphosate (Table 3). After two 14-day passages on this medium, actively growing tissue is transferred to DN62540RR medium containing 540 mg/l glyphosate (Table 3). […] Regeneration is carried out as described in U.S. Ser. No. 09/203,679.

[3] = system: regenerated soybean plants transformed with mutant epm1 and/or mutant epm2; assay: Glyphosate spray of regenerated transgenic soybean plants and progenies; format: in vivo; conditions: sprayed at commercial rates, greenhouse
From the text: The Bam HI/Sac II fragment (SEQ ID NO: 2) of epm1 vector and the Eco RI fragment (SEQ ID NO: 4) of epm2 vector were used to transform soybean embryogenic callus using an aerosol beam injector as described in U.S. patent application Ser. No. 09/450,226, which is incorporated herein by reference. These fragments comprised mutant epm1 and mutant epm2 which encode (putative) glyphosate-resistant EPSPSs. These fragments were used either alone or, preferably, together.
The transformed tissue is selected for glyphosate resistance using the method described below. First, the beamed embryogenic callus is maintained for one month on B1-30 3Co5My0.01PA medium.
The tissue is then transferred to the same medium but now containing 300 mg/l glyphosate. After a number of passages (up to 5 passages, each passage may last for about a month) on this latter medium, resistant clonal material may be identified. After an optional further few passages on B1-30 3Co5My0.01PA medium but containing 500 mg/l glyphosate, the growing tissue is transferred to a regeneration media as described in U.S. Pat. Ser. No. 09/450,226. Regenerated plants are transferred to pots in a greenhouse. […] Progenies are expected to 3:1 for glyphosate resistance as would be expected for Mendelian inheritance of a transgene.

O=C(O)CNCP(=O)(O)O [glyphosate, N-phosphonomethylglycine]
growth of stably transformed tissue on glyphosate medium [1]: continued growth
growth of stably transformed tissue on glyphosate medium [2]: continued growth
resistance of regenerated plants and progenies to glyphosate spray [3]: complete resistance

From US7626077B2, “Glyphosate-resistant plants” (Mertec LLC, priority 2002, dated 2009)
